# From ChEMBL document CHEMBL1131299 (J Med Chem, 1998)
# What was measured:
# [1] = biological target: T1, Progesterone receptor (Homo sapiens, UniProt P06401); experiment: Agonistic activity was measured for modulation of hPR-B (human progesterone receptor) in co-transfected CV-1 cells.; assay type: functional, cell-based
# T1 sequence (P06401 whole entry): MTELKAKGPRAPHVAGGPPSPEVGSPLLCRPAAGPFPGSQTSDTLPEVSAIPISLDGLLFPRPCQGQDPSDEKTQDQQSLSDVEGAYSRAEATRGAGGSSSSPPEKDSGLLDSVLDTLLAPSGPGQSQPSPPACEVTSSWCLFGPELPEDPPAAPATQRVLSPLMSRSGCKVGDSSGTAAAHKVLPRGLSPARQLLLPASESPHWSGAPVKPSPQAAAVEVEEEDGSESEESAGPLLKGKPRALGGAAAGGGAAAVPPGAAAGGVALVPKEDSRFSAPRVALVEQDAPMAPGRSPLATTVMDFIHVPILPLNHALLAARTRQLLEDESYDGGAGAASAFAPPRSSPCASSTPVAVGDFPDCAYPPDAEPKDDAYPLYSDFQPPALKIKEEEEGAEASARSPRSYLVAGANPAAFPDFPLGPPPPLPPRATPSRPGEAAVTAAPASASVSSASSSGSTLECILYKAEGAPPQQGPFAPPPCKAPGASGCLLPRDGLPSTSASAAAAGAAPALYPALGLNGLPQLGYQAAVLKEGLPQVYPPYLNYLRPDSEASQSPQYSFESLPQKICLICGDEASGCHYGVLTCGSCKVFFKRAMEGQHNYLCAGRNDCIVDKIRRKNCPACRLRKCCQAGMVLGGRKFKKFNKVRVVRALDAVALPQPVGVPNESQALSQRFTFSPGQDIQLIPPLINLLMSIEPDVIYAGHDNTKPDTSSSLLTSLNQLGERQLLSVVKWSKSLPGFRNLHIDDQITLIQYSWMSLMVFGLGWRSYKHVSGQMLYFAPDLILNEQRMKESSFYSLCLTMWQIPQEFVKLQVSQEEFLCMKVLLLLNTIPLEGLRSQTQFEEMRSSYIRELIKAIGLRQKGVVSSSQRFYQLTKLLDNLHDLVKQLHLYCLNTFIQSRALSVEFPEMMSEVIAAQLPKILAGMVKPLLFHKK
# [2] = biological target: T1, Progesterone receptor; experiment: The binding affinity measured using baculovirus-expressed hPR-A in sf21 cells.
# [3] = organism: Rattus norvegicus; experiment: Compound was Dawley rats expressed as response to MPA at […]; assay type: functional
Structure (SMILES),EC50 [1],Ki [2],Efficacy [3]
CC1=CC(C)(C)Nc2ccc3c(c21)C(c1ccc(Cl)cc1)Oc1cc(F)ccc1-3 (stereo not drawn),10 nM,2.7 nM,
CC1=CC(C)(C)Nc2ccc3c(c21)C(c1cccc(C(F)(F)F)c1)Oc1ccc(F)cc1-3 (stereo not drawn),10 nM,0.78 nM,
CC1=CC(C)(C)Nc2ccc3c(c21)C(c1ccc(Cl)cc1)Oc1ccccc1-3 (stereo not drawn),15 nM,,
CC1=CC(C)(C)Nc2ccc3c(c21)C(c1cccc(C(F)(F)F)c1)Oc1ccc(Cl)cc1-3 (stereo not drawn),,1.1 nM,
COc1ccc(C2Oc3ccc(F)cc3-c3ccc4c(c32)C(C)=CC(C)(C)N4)cc1 (stereo not drawn),270 nM,2.7 nM,
CC1=CC(C)(C)Nc2ccc3c(c21)C(c1ccc(F)c(C)c1)Oc1ccc(F)cc1-3 (stereo not drawn),15 nM,1.3 nM,
COc1ccc2c(c1)-c1ccc3c(c1C(c1ccc(Cl)cc1)O2)C(C)=CC(C)(C)N3 (stereo not drawn),3.1 nM,2.4 nM,
CC(=O)O[C@]1(C(C)=O)CC[C@H]2[C@@H]3C[C@H](C)C4=CC(=O)CC[C@]4(C)[C@H]3CC[C@@]21C [MEDROXYPROGESTERONE ACETATE],,,100%
CC1=CC(C)(C)Nc2ccc3c(c21)C(c1ccc(F)c(C)c1)Oc1ccc(Cl)cc1-3 (stereo not drawn),9.5 nM,1.3 nM,
CC1=CC(C)(C)Nc2ccc3c(c21)C(c1ccccc1)Oc1ccc(F)cc1-3 (stereo not drawn),7.4 nM,2.2 nM,
COc1ccc(C2Oc3ccc(Cl)cc3-c3ccc4c(c32)C(C)=CC(C)(C)N4)cc1 (stereo not drawn),13 nM,0.93 nM,

# The remaining compounds from weak to strong by Ki [2], led by results:
EC50 [1],Ki [2],Structure (SMILES),Efficacy [3]
6.9 nM,0.74 nM,CC1=CC(C)(C)Nc2ccc3c(c21)C(c1ccccc1)Oc1ccc(Cl)cc1-3 (stereo not drawn),
9 nM,0.59 nM,CC1=CC(C)(C)Nc2ccc3c(c21)C(c1ccc(Cl)cc1)Oc1ccc(Cl)cc1-3 (stereo not drawn),108%
5.2 nM,0.59 nM,CC1=CC(C)(C)Nc2ccc3c(c21)C(c1ccc(Br)cc1)Oc1ccc(Cl)cc1-3 (stereo not drawn),60%
7.1 nM,0.55 nM,CC1=CC(C)(C)Nc2ccc3c(c21)C(c1cccc(C)c1)Oc1ccc(Cl)cc1-3 (stereo not drawn),
,0.5 nM,CC1=CC(C)(C)Nc2ccc3c(c21)C(c1ccc(Cl)c(C)c1)Oc1ccc(Cl)cc1-3 (stereo not drawn),
2.7 nM,0.49 nM,CC1=CC(C)(C)Nc2ccc3c(c21)C(c1ccc(Cl)c(C)c1)Oc1ccc(F)cc1-3 (stereo not drawn),
3.6 nM,0.48 nM,CC1=CC(C)(C)Nc2ccc3c(c21)C(c1cccc(Cl)c1)Oc1ccc(Cl)cc1-3 (stereo not drawn),
5 nM,0.37 nM,CC1=CC(C)(C)Nc2ccc3c(c21)C(c1cccc(C)c1)Oc1ccc(F)cc1-3 (stereo not drawn),
3.7 nM,0.34 nM,CC1=CC(C)(C)Nc2ccc3c(c21)C(c1cccc(F)c1)Oc1ccc(Cl)cc1-3 (stereo not drawn),
2.8 nM,0.32 nM,CC1=CC(C)(C)Nc2ccc3c(c21)C(c1cccc(Cl)c1)Oc1ccc(F)cc1-3 (stereo not drawn),
8.1 nM,0.32 nM,CC1=CC(C)(C)Nc2ccc3c(c21)C(c1ccc(Cl)cc1)Oc1ccc(F)cc1-3 (stereo not drawn),116%
